Consider four compounds from patent US7557109B2, “Treatment for attention-deficit hyperactivity disorder” (priority 2001, dated 2009).

The subject of test [1] is DA and 5-HT release in dorsal striatum. Put plainly: In vivo microdialysis of DA and 5-HT release in dorsal striatum, wild-type mice. An excerpt:
(§1) Wild-type and 5-HT1B knock out mice were implanted with microdialysis probes according to the methods of DeGroote et al., incorporated herein by reference, with the following modifications. (DeGroote et al., Eur. J. Pharmacol., 439:93-100, 2002). The dialysis probe was placed in the dorsal striatum, at coordinates AP +0.80, ML −1.7 mm from bregma, DV −4.0 mm from the dura, according to the stereotaxic atlas of the mouse brain (Franklin and Paxinos, 1997), and with the toothbar set at 0 mm. Microdialysis experiments were begun 16-20 hours after surgery, using previously described methods, which are incorporated herein by reference (DeGroote et al., 2002). After the start of the dialysis probe perfusion, mice were left undisturbed for three hours. Mice were tested in their home cage during the light period. Samples were collected every 20 minutes in vials containing 7.5 μl acetic acid and stored at −80° C. until HPLC analysis.
Release of DA and 5-HT was measured after peripheral administration of eltoprazine or intrastriatal administration of the selective 5-HT1B receptor agonist CP 93129 dihydrochloride (1,4-Dihydro-3-(1,2,3,6-tetrahydro-4-pyridinyl)-5H-pyrrolo[3,2-b]pyridin-5-one, obtained from Tocris, UK.) Drugs were dissolved in distilled water and further diluted in Ringer solution to the final concentration on the day of the experiment. 5-HT and DA were analyzed by HPLC with electrochemical detection. Samples (25 μl) were injected onto an Inertsil ODS-3 column (3 μM, 2.1×100 mm, Aurora Borealis, The Netherlands) using a Gilson pump and autosampler (Separations, The Netherlands). Separation was performed at 40° C. with the electrochemical detector (Intro, ANTEC Leyden, The Netherlands) set at a potential of 600 mV against an Ag/AgCl reference electrode. The signal was analyzed using Gynkotek software. The mobile phase consisted of 5 g/l (NH4)2SO4, 150 mg/l heptane sulphonic acid sodium salt, 0.5 g/l EDTA, 5% methanol, 30 μl/l triethylamine, 30 μl/l acetic acid, pH 4.6. Flow rate was 0.3 ml/min. The detection limit for 5-HT was 0.5 fmol/25 μl sample (signal to noise ratio 2).
Values for the first four consecutive microdialysis samples were averaged to calculate the basal levels of extracellular 5-HT and DA, uncorrected for probe recovery. Student's t-tests were used to compare basal 5-HT and DA values between the two genotypes. Effects of drug treatment were analyzed by a repeated multivariate analysis of variance (ANOVA) with time as ‘within’ and treatment (or dose) and genotype as ‘between’ factors.

The test system is the same in test [2]. In words: In vivo microdialysis of DA and 5-HT release in dorsal striatum, 1BKO mice. Also on record: species or system 5-HT1B knock out mice. The settings on record: local administration.
Text: as §1
Release of DA and 5-HT was measured after peripheral administration of eltoprazine or intrastriatal administration of the selective 5-HT1B receptor agonist CP 93129 dihydrochloride (1,4-Dihydro-3-(1,2,3,6-tetrahydro-4-pyridinyl)-5H-pyrrolo[3,2-b]pyridin-5-one, obtained from Tocris, UK.) Drugs were dissolved in distilled water and further diluted in Ringer solution to the final concentration on the day of the experiment. 5-HT and DA were analyzed by HPLC with electrochemical detection. Samples (25 μl) were injected onto an Inertsil ODS-3 column (3 μM, 2.1×100 mm, Aurora Borealis, The Netherlands) using a Gilson pump and autosampler (Separations, The Netherlands). […] The signal was analyzed using Gynkotek software. […]
Values for the first four consecutive microdialysis samples were averaged to calculate the basal levels of extracellular 5-HT and DA, uncorrected for probe recovery. […] Effects of drug treatment were analyzed by a repeated multivariate analysis of variance (ANOVA) with time as ‘within’ and treatment (or dose) and genotype as ‘between’ factors.

For test [3], the system named is coloboma (Cm) mutant mice. It is filed as in vivo. An excerpt: (§2) Heterozygote coloboma mice were originally purchased from The Jackson Laboratory (Bar Harbor, Me.) and were bred and maintained in our colony. In the current study, 20 mutant mice and 25 wild-type littermates, all aged 8 to 10 weeks, were used. Animals were divided into 4 groups: mutant/drug-treatment (n=11), mutant/vehicle-control (n=9), wild-type/drug-treatment (n=13), wild-type/vehicle-control (n=12). Age and gender were balanced among groups. All animals were housed as littermates (2-4 mice per cage) and were maintained on ad libitum food and water with a 12 hr light/dark cycle.
(§3) Open-field testing was performed under normal lighting conditions. Mice were brought into the experimental room and allowed at least 1 hr of acclimatization. Thirty minutes prior to testing, animals received an ip. injection of either d-amphetamine (4 mg/kg), eltoprazine (0.5 mg/kg) or saline. The mice were then placed in the activity monitor arenas (27×27×20 cm, Med Associates). Four animals of matching genotype and treatment were tested at one time. Each testing session lasted 40 minutes, after which animals were returned to their home cages. An automated infrared beam array system measured locomotor activity (total distance traveled) and number of center entries (zone crossings).

The test system of test [4] is wild-type mice. Put plainly: Open-field locomotor activity, wild-type littermates. It is filed as in vivo.
Text: as §2, §3

For another test, the system named is C3H mice. In words: Peak procedure (30 second reinforcement interval), C3H mice. It is filed as in vivo. The settings on record: 0.3 to 3.0 mg/kg i.p. (FIG. 8). As to the method:
(§4) The peak procedure is a behavioral model designed to assess an animal's ability to learn an appropriate time period in which to perform a task and a time period in which the animal will be rewarded if the task is performed. The model provides information concerning excitatory and inhibitory components of behavior, as subjects must respond to perform a task when appropriate and stop responding in an “empty trial” when time for reward has elapsed and the reward has not been delivered. The task is sensitive to conditions where there is a failure in inhibitory mechanisms, such as seems to be the case for ADHD (Pliszka et al., Biol. Psychiatry, 48:238-46, 2000).
In the peak procedure, mice are trained to work for food that is delivered at the same time in each trial, but withdrawn in some unreinforced trials. Typically, the response rate increases up to a maximum around the reinforcement time, and then decreases to a low toward the end of the trial. The shape of the response rate indicates whether the animal is sensitive to the time of reinforcement. To be able to perform well in this model, the animals need to be able to learn several tasks. First, the animal must make an association between a response (lever pressing, nose poking or key pecking) and the delivery of reward. Second, the animal must be able to perceive and remember time. Third, the animal must act on its remembered time by starting and then stopping or inhibiting the response. Fourth, the animal must be able to compare the elapsed time in the trials with its remembered time to reinforcement. […] Accuracy is measured by looking at the shape of the response function; therefore, if the response function is sharper and centered on the reinforcement time it supports a conclusion that attentional processes have been heightened.
(§5) Mice were food deprived to 85-90% of their free-feeding body weight by supplementing food earned during experimental sessions with a measured amount after the session had ended. […]

Test [5] relates to 5-HT1B knockout (1BKO) mice. In words: DRL-36s schedule after FR5 conditioning, 5-HT1B knockout mice. It is filed as in vivo. As to the method: (§6) Experiments were conducted in eight identical mouse operant chambers (16×14×13 cm) with stainless steel grid floors (ENV-307M; Med Associates Inc., Georgia, Vt., USA) housed in sound-insulating and ventilated cubicles. Each chamber was equipped with two ultra-sensitive retractable levers, one on each side of a food cup containing photocells to register nose poke behavior and in which a pellet dispenser delivered 20 mg food pellets (Formula A/I, P.J. Noyes Company Inc., Lancaster, N.H., USA). A red house light (50 lux) was located in the center of the wall opposite to the food cup and levers. Stimulus lights were located above each lever and above the food cup. Experimental sessions were controlled and data were recorded by a computer.
(§7) Mice trained on DRL procedure first received operant conditioning. DRL-36s task was adapted from procedures used in rats (O'Donnell and Seiden, supra). Briefly, mice first learned to respond for food under a DRL 6 sec schedule, which means that mice had to wait at least 6 seconds between successive lever presses in order to obtain a food reward. Subsequently the schedule requirement was increased every session in steps of 6 sec to 36 sec (DRL 36 sec). Each session started with the illumination of the house light, the stimulus light above the food cup and the presentation of the left lever for the duration of the session. […] If the mouse presses too soon, no reinforcement is given, the clock is reset to zero, and a new 36-sec waiting period starts. In this way, the DRL-36s schedule task primarily measures waiting strategies which reflect hyperactivity-impulsivity behaviors associated with ADHD. Animals were trained until performances on the DRL 36 sec schedule had stabilized (approximately 25 sessions). All training sessions lasted 60 min and were conducted 5 days per week from Monday-Friday. The total number of lever presses (responses), the total number of reinforcements, and the inter-response times (IRT) are recorded.
Data were analyzed as described elsewhere (Richards et al., J. Exp. Anal. Behav. 60:361-385, 1993; Sabol et al., Psychopharmacology 121:57-65, 1995). The inter-response time (IRT) analysis included three measures for the characterization of DRL 36 sec IRT distributions: peak area, peak location and burst ratio. Only peak area (PkA) and peak location (PkL) are presented. The PkA measure is the area of the obtained IRT distribution of a mouse above the corresponding negative exponential, a computation based on mean of obtained IRT durations excluding the burst component of IRT<3 sec (see Richards et al., supra, for details). […] PkL is calculated as the median of the area of the obtained IRT distribution above the corresponding negative exponential. […]

The subject of test [6] is wild-type mice. In words: DRL-36s schedule after FR5 conditioning, wild-type mice. It is filed as in vivo. As to the method: as §6, §7
Data were analyzed as described elsewhere (Richards et al., J. Exp. Anal. Behav. 60:361-385, 1993; Sabol et al., Psychopharmacology 121:57-65, 1995). The inter-response time (IRT) analysis included three measures for the characterization of DRL 36 sec IRT distributions: peak area, peak location and burst ratio. Only peak area (PkA) and peak location (PkL) are presented. The PkA measure is the area of the obtained IRT distribution of a mouse above the corresponding negative exponential, a computation based on mean of obtained IRT durations excluding the burst component of IRT<3 sec (see Richards et al., supra, for details). […] Thus, decreases in PkA indicate that the mouse's IRT distribution becomes more similar to random performance indicating loss of schedule control. PkL is calculated as the median of the area of the obtained IRT distribution above the corresponding negative exponential.
Mice were conditioned and challenged on a DRL-36s schedule according to the methods of Example 7, with the following modifications. Because 1BKO mice had difficulty learning the DRL-36s schedule following conditioning on an FR1, wild-type and 1BKO mice were conditioned on a fixed rate 5 (FR5) schedule. In FR5, instead of pressing the lever once for a reward, animals have to press 5 times. The rationale for changing the operant conditioning was that by increasing the number of responses necessary for reinforcement, the wild-type mice should have greater difficulty and the 1BKO (which have higher response rates anyway) should have less difficulty getting reinforcements.

The test system of a further test is C57BL/6J mice. Put plainly: Peak procedure (30 second reinforcement interval), C57BL/6J mice. It is filed as in vivo. The procedure: as §4
In the peak procedure, mice are trained to work for food that is delivered at the same time in each trial, but withdrawn in some unreinforced trials. Typically, the response rate increases up to a maximum around the reinforcement time, and then decreases to a low toward the end of the trial. […] Accuracy is measured by looking at the shape of the response function; therefore, if the response function is sharper and centered on the reinforcement time it supports a conclusion that attentional processes have been heightened.
as §5

The subject of the next test is Cm mutant mice. The settings on record: Hess et al., 1996; cited from earlier work.

Consider `O=c1ccc2[nH]cc(C3=CCNCC3)c2[nH]1` [CP 93129, 1,4-Dihydro-3-(1,2,3,6-tetrahydro-4-pyridinyl)-5H-pyrrolo[3,2-b]pyridin-5-one, reference compound], for which, in test [1] (0.5 μM, local administration), the DA release entry was “unaffected” and the “time for 5-HT release to return toward basal levels after cessation” value is at most 40 min. Moreover, in [1] (0.5 μM, local administration through probe), the “5-HT level as compared to vehicle” value was 51±9%. The “increase in DA levels” value in [1] (50 μM, local administration, compared to vehicle) is recorded as 525±79%. In [2] (0.5 μM), the 5-HT release result was “did not decrease 5-HT release” and the “striatal release of DA” value is “similarly unaffected”. Also, the “increase in DA levels” value in [2] (50 μM, compared to vehicle) is reported as 527±67%.

For `CCCOc1ccc2[nH]cc(C3=CCNCC3)c2n1` [CP 94253, reference compound], the distance traveled result in test [3] (0.5 mg/kg (FIG. 7)) is listed as “did not decrease significantly the distance traveled”. For the same compound, the locomotor activity entry with wild-type mice [4] (0.5 mg/kg (FIG. 7)) was “no effect on the locomotor activity”. Further, in the test on C3H mice, the “timing in the peak procedure” value is “no effect on timing in the peak procedure”.

For the compound `C[C@H](N)Cc1ccccc1` [d-amphetamine], the total distance traveled worked out at 5966±1938 cm in test [3] (4 mg/kg i.p., 40 min session, saline 18386±6387 (FIG. 4)) and 11657±2370 cm in the test on wild-type mice [4] (4 mg/kg i.p., 40 min session, saline 3116±338 (FIG. 4)). For the same compound, the number of reinforcements result in test [5] (2, 4 or 8 mg/kg i.p. (FIG. 12A)) was “no significant effect on number of reinforcements”; with wild-type mice [6] (2 and 8 mg/kg i.p. vs vehicle (FIG. 12A)) it was “significantly decreased the number of reinforcements”. For the same compound, the response rate entry in [5] (2, 4 or 8 mg/kg i.p. (FIG. 12B)) is reported as “not statistically significant at any dose”; with wild-type mice [6] (2 mg/kg i.p.) it was “significantly increased response rate”; in the test with wild-type mice [6] (4 mg/kg i.p., wild-type vs 1BKO) it was “significantly decreased response rate in wild-types compared to 1BKO mice”; with wild-type mice [6] (8 mg/kg i.p.), “decreased response rate”. The “relative response rate curve in peak trials” value is “does not peak as high as the lower dose and the curve is flatter” in the test on C57BL/6J mice (4 mg/kg, 30 min before session (FIG. 1C)); “higher peak in the curve followed by a rapid decrease” with C57BL/6J mice (1 and 2 mg/kg, 30 min before session, relative to saline (FIGS. 1A, 1B)). Also, the “hyperactivity / locomotor activity in Cm mutant mice” value in the test on Cm mutant mice is listed as “normalizes the hyperactivity”.

Turning to `COC(=O)C(c1ccccc1)C1CCCCN1` (stereo not shown) [methylphenidate], the “hyperactivity / locomotor activity in Cm mutant mice” value in the test with Cm mutant mice is recorded as “increases locomotor activity in a dose-dependent manner”.
